pIC50: −log10 of the molar value. Activity calls are given as the source filed them. No cut-off for these calls is given here.
Columns and labels:
[1] = system: Plasmodium falciparum; assay: Antimalarial activity against Plasmodium falciparum 3D7A infected erythrocytes by [3H]hypoxanthine uptake; type: functional, organism-based
[2] = system: Plasmodium falciparum; assay: Antimalarial activity against Plasmodium falciparum T9-96 infected Rhesus positive human erythrocytes by [3H]hypoxanthine uptake; type: functional, organism-based
[3] = system: Plasmodium yoelii; assay: Antimalarial activity as reduced parasitaemia against Plasmodium yoelii YM in CD1 mice (Mus musculus) after 7 peroral doses over 4 days; type: functional; conditions: po, 96 h
[4] = system: Plasmodium falciparum; assay: Antimalarial activity against Plasmodium falciparum FCR3-A infected erythrocytes as [3H]hypoxanthine incorporation; type: functional, organism-based
[5] = system: Plasmodium yoelii; assay: Antimalarial activity as reduced parasitaemia against Plasmodium yoelii YM in CD1 mice (Mus musculus) given a single peroral dose; type: functional; conditions: po
[6] = system: Plasmodium falciparum; assay: Antimalarial activity as parasite elimination against Plasmodium falciparum infected Aotus monkeys at 10 mg/kg/day for 7 days; type: functional, organism-based

Row | pIC50 [1] | pIC50 [2] | pIC50 [4] | SMILES | ED50 [3] | ED50 [5] | Activity [6]
1 | < 6.00 |  |  | Cc1[nH]c(C(F)(F)F)c(Br)c(=O)c1-c1ccc(Oc2ccc(OC(F)(F)F)cc2)cc1 |  |  | 
2 |  | 5.60 |  | Cc1[nH]c(C)c(-c2ccc(Cl)cc2)c(=O)c1Cl | 20 mg/kg |  | 
3 |  | 7.30 |  | Cc1[nH]c(C)c([C@H]2CC[C@H](c3ccc(Cl)cc3)CC2)c(=O)c1Cl | 0.6 mg/kg |  | 
4 |  | 5.40 |  | CCCCCCCCc1c(C)[nH]c(C)c(Cl)c1=O | > 60 mg/kg |  | 
5 | 7.52 |  |  | Cc1[nH]c(C)c([N+](=O)[O-])c(=O)c1-c1ccc(Oc2ccc(OC(F)(F)F)cc2)cc1 |  |  | 
6 |  | 7.22 |  | Cc1[nH]c(C)c(-c2ccc(Oc3ccc(C(F)(F)F)cc3)cc2)c(=O)c1Cl | 0.6 mg/kg |  | 
7 | 6.80 | 6.80 |  | Cc1cc(=O)c(-c2ccc(Oc3ccc(OC(F)(F)F)cc3)cc2)c(C)[nH]1 | > 5 mg/kg |  | 
8 |  | 5.66 |  | Cc1cc(=O)c(-c2ccc(Oc3ccc(Cl)cc3)cc2)c(C)n1O | > 1 mg/kg |  | 
9 | 8.10 | 7.52 |  | Cc1[nH]c(C)c(-c2ccc(Oc3ccc(OC(F)(F)F)cc3)cc2)c(=O)c1Br | 0.3 mg/kg | 0.2 mg/kg | Active
10 | 6.52 |  |  | COc1c(C)[nH]c(C)c(-c2ccc(Oc3cccc(C(F)(F)F)c3)cc2)c1=O |  |  | 
11 |  | 4.70 |  | Cc1nc(C)c(Cl)c(O)c1Cl [CLOPIDOL] | 40 mg/kg |  | 

More lines, now with the values behind:

Row | SMILES | pIC50 [1] | pIC50 [2] | pIC50 [4] | ED50 [3] | ED50 [5] | Activity [6]
12 | Cc1[nH]c(C)c(-c2ccc(-c3ccc(Cl)cc3)cc2)c(=O)c1Cl |  | 6.40 |  | 0.7 mg/kg |  | 
13 | Cc1cc(=O)c(-c2ccc(Oc3ccc(C(F)(F)F)cc3)cc2)c(C)[nH]1 |  | 6.30 |  | 1.3 mg/kg |  | 
14 | Cc1[nH]c(C)c(-c2ccccc2)c(=O)c1Cl |  | 4.96 |  | 22 mg/kg |  | 
15 | Cc1[nH]c(C)c(-c2ccc(Oc3cccc(C(F)(F)F)c3)cc2)c(=O)c1Cl | 8.30 | 7.52 | 8.60 | 0.2 mg/kg | 0.2 mg/kg | 
16 | O=C1C(O)=C([C@H]2CC[C@H](c3ccc(Cl)cc3)CC2)C(=O)c2ccccc21 [ATOVAQUONE] |  | 8.52 | 5.87 | 0.03 mg/kg |  | 
17 | Cc1[nH]c(C)c(-c2ccc(Oc3ccc(Cl)cc3)cc2)c(=O)c1Cl |  | 7.22 |  | 0.6 mg/kg |  | 
18 | Cc1[nH]cc(Br)c(=O)c1-c1ccc(Oc2ccc(OC(F)(F)F)cc2)cc1 | 6.96 |  |  |  |  | 
19 | Cc1[nH]c(C)c(-c2ccc(Oc3cccc(Cl)c3)cc2)c(=O)c1Br |  | 7.52 |  | 3.9 mg/kg |  | 
20 | Cc1[nH]c(C)c(-c2ccc(Oc3cccc(Cl)c3)cc2)c(=O)c1Cl |  | 7.52 |  | > 5 mg/kg |  | 
21 | Cc1[nH]c(C)c(-c2ccc(Oc3ccc(F)cc3)cc2)c(=O)c1Br |  | 7.40 |  | 0.6 mg/kg |  | 
22 | Cc1[nH]c(C)c(-c2ccccc2Oc2ccc(OC(F)(F)F)cc2)c(=O)c1Br | 6.40 |  |  |  |  | 
23 | Cc1cc(=O)c(-c2ccc(Oc3ccc(Cl)cc3)cc2)c(C)[nH]1 |  | 6.60 |  | 2.5 mg/kg |  | 
24 | Cc1[nH]c(C)c(-c2ccc(Oc3ccc(Cl)cc3)cc2)c(=O)c1Br |  | 7.40 |  | 0.3 mg/kg | 5 mg/kg | 
25 | O=c1c(-c2ccc(Oc3ccc(OC(F)(F)F)cc3)cc2)c[nH]c(C(F)(F)F)c1Br | < 6.00 |  |  |  |  | 
26 | Cc1[nH]c(C)c(-c2ccc(Oc3ccccc3)cc2)c(=O)c1Br |  | 6.82 |  | 4 mg/kg |  | 
27 | Cc1[nH]c(C)c(-c2ccc(Oc3ccc(OC(F)(F)F)cc3)cc2)c(=O)c1CN1CCCC1 | 5.89 |  |  |  |  | 
28 | Cc1[nH]cc(-c2ccc(Oc3ccc(OC(F)(F)F)cc3)cc2)c(=O)c1Br | 6.70 |  |  |  |  | 
29 | Cc1[nH]c(C)c(-c2ccc(Oc3cccc(C(F)(F)F)c3)cc2)c(=O)c1Br |  | 7.52 |  | 0.6 mg/kg | 3.6 mg/kg | 
30 | Cc1[nH]c(C)c(C(F)(F)F)c(=O)c1-c1ccc(Oc2ccc(OC(F)(F)F)cc2)cc1 | 7.52 |  |  |  |  | 
31 | CCN(CC)CCCC(C)Nc1ccnc2cc(Cl)ccc12 (centres undefined) [CHLOROQUINE] |  |  |  | 1.8 mg/kg |  | 
32 | Cc1[nH]c(C)c(-c2ccc(Oc3ccc(C(F)(F)F)cc3)cc2)c(=O)c1Br |  | 7.52 |  | 0.3 mg/kg | 1.1 mg/kg | 
33 | Cc1c(Br)c(=O)c(-c2ccc(Oc3ccc(Cl)cc3)cc2)c(C)n1O |  | 6.35 |  | 1 mg/kg |  | 
34 | Cc1[nH]c(C)c(-c2ccc(Oc3ccc(OC(F)(F)F)cc3)cc2)c(=O)c1Cl | 8.30 | 7.52 | 9.00 | 0.2 mg/kg | 0.4 mg/kg | Active
35 | Cc1[nH]c(C)c(-c2cccc(Oc3ccc(OC(F)(F)F)cc3)c2)c(=O)c1Br | 8.15 |  |  |  |  | 

— ChEMBL document CHEMBL1150240, “Synthesis and structure-activity relationships of 4-pyridones as potential antimalarials” (J Med Chem, 2008)
